The results in this text go back to paper PMC9233675, “Ru(II) photocages enable precise control over enzyme activity with red light” (Nature Communications, 2022).

Data set [1] is described as follows: Irradiation-induced 1O2 production (Singlet Oxygen Sensor Green assay). The data set is classed as physicochemical. As to conditions: sheet S27; triplicate columns; DMSO control about 0.9. The source says:
Some Ru(II) complexes can generate singlet oxygen when photoexcited, a feature that has been applied to the selective photoinactivation of proteins. In this approach, the Ru(II) system is conjugated to a peptide that is a specific ligand for the protein target; binding of the peptide to the protein ensures close proximity of the Ru(II) center and thus, upon photoexcitation, the generation of a high local concentration of singlet oxygen. […] As very little of this reactive oxygen species was generated, inactivation of the CYP enzymes by this process appears unlikely.
Supplementary Figure 27. Determination of irradiation-induced 1O2 production with 660 nm light (1 hr = 58.7 J/cm2)
using the Singlet Oxygen Sensor Green assay. […]

A short description of data set [2]: Stability of compounds in rat liver microsomes. In general terms: Microsomes from liver hold many membrane-bound enzymes, among them those of drug oxidation.
A short description of data set [3]: Stability of compounds in mouse liver microsomes.
Data set [4] in a line: Stability of compounds in human liver microsomes. As to conditions: for Remaining, % (T=60min): human, liver microsomes.

“And” between values parts separate entries of the source, which are not always exact repeats. Equal values may be shown once.

With `CCCCCCOC(C)c1c(C)c2cc3nc(c4c5[nH]c(cc6nc(cc1[nH]2)C(C)=C6CC)c(C)c5C(=O)C4)[C@@H](CCC(=O)O)[C@@H]3C` (stereo partly drawn) [HPPH, reference compound], the “irradiation-induced 1O2 production (Singlet Oxygen Sensor Green signal, relative)” value in data set [1] was 4.8266 and 4.787 and 4.883.

For the compound `C[C@]12CC[C@H]3[C@@H](CCC4=CC(=O)CC[C@@]43C)[C@@H]1CC[C@@H]2O` [Testosterone, reference compound], the “Remaining, % (NCF=60min)” value in data set [2] (rat liver microsomes, no co-factor (no NADPH)) is on record as 86.5%; in data set [3] (mouse liver microsomes, no co-factor (no NADPH)), 91.3%; in data set [4] (human liver microsomes, no co-factor (no NADPH)) it was 82.5%. Also, the “Remaining, % (T=60min)” value in data set [2] (rat, liver microsomes) is recorded as 0.8%; in data set [3] (mouse, liver microsomes), 2.3%; in data set [4] it was 3.6%.

In the case of `[Ru+2].c1ccc(-c2ccccn2)nc1.c1ccc(-c2ccccn2)nc1.c1ccc(-c2ccccn2)nc1` [Ru(bpy)3, reference compound], the “irradiation-induced 1O2 production (Singlet Oxygen Sensor Green signal, relative)” value in data set [1] was 4.994 and 4.917 and 5.133.

`O=C(O)Cc1ccccc1Nc1c(Cl)cccc1Cl` [Diclofenac, reference compound]: in data set [4], the “Remaining, % (T=60min)” value turned out to be 0.0%.
